Source: PubChem BioAssay (NCI)
Where “and” joins values, the source holds several entries; their conditions need not be identical. Equal values may be shown once.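 Briefly, cells in 96-well plates were exposed to five compound concentrations for 48 h, and endpoints were estimated by linear interpolation. Abbreviation: GI50, concentration required for 50% inhibition of growth. TGI marks complete inhibition of growth.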

Legend:
Assay in all cases: growth of human tumour cells (NCI), 48 h
EKVX NSCLC = test system: EKVX NSCLC
SK-MEL-5 melanoma = test system: SK-MEL-5 melanoma
OVCAR-5 ovarian = test system: OVCAR-5 ovarian
OVCAR-3 ovarian = test system: OVCAR-3 ovarian
NCI-H23 lung = test system: NCI-H23 lung
MALME-3M melanoma = test system: MALME-3M melanoma
SF-295 CNS = test system: SF-295 CNS
HOP-92 NSCLC = test system: HOP-92 NSCLC
ACHN renal = test system: ACHN renal
786-0 renal = test system: 786-0 renal

SMILES | GI50 (EKVX NSCLC) [µM] | TGI (EKVX NSCLC) | GI50 (SK-MEL-5 melanoma) | TGI (SK-MEL-5 melanoma) | GI50 (OVCAR-5 ovarian) [µM] | TGI (OVCAR-5 ovarian) [µM] | GI50 (OVCAR-3 ovarian) | TGI (OVCAR-3 ovarian) | GI50 (NCI-H23 lung) [µM] | TGI (NCI-H23 lung) | GI50 (MALME-3M melanoma) | TGI (MALME-3M melanoma) | GI50 (SF-295 CNS) | TGI (SF-295 CNS) | GI50 (HOP-92 NSCLC) [µM] | TGI (HOP-92 NSCLC) | GI50 (ACHN renal) [µM] | TGI (ACHN renal) | GI50 (786-0 renal) | TGI (786-0 renal)
CSc1ccc(C2=NN(C(=O)c3ccc(F)cc3)C(c3ccc(F)cc3)C2)cc1 (centres undefined) | 18.9 | 37 µM | 18.5 µM | 33.3 µM | 18.2 | 33.3 | 10.3 µM | 22.5 µM | 18.2 | 36.2 µM | 12.1 µM | 26 µM | 17.9 µM | 33.7 µM | 9.72 | 24.6 µM | 12.7 | 25.4 µM | 15.5 µM | 30.7 µM
COc1cc(/C=C/C(=O)CC(=O)/C=C/c2cc(OC)c(OC)c(OC)c2)cc(OC)c1OC | 3.59 | 40.9 µM | 4.51 µM | 46 µM | 17.2 | > 100 | 2.34 µM | 5.91 µM | 3.34 | 20.2 µM | 5.06 µM | 21.7 µM | 3.16 µM | 17.2 µM | 2.47 | 8.34 µM | 3.95 | 14.1 µM | 4.05 µM | 17.6 µM
O=Cc1ccc(-c2cc(C=O)c(-c3cccs3)[nH]2)s1 | 47.8 | 75 µM and > 100 µM | 40.5 µM | 75 µM and > 100 µM | 66.4 | > 100 | 52 µM | 53.7 µM and > 100 µM | > 100 | 75 µM and > 100 µM | > 100 µM | 75 µM and > 100 µM | 36.9 µM | 75 µM and > 100 µM | > 100 | 75 µM and > 100 µM | 78.6 | 75 µM and > 100 µM | > 100 µM | 75 µM and > 100 µM
COC(=O)c1s/c(=N\C(=S)N(C)C)n(-c2ccccc2)c1C(=O)OC |  | > 100 µM |  | > 100 µM |  | > 100 |  | > 100 µM |  | > 100 µM |  | > 100 µM |  | > 100 µM |  | > 100 µM |  | > 100 µM |  | > 100 µM
CCCCc1c2c(nc3c1CCC/C3=C\c1ccccc1)C(=O)CCC2 |  | 68.4 µM |  | 30.4 µM |  | 43.1 |  | 33.4 µM |  | 58.7 µM |  | 52 µM |  | 40.3 µM |  | 58.7 µM |  | 95.2 µM |  | 60.9 µM
CC(=O)Nc1ccc(C(=O)NN2C(=O)C(Cl)C2c2ccc(Cl)cc2)cc1 (centres undefined) |  | > 100 µM |  | > 100 µM |  | > 100 |  | 52.3 µM |  | > 100 µM |  | > 65.8 µM |  | 44.7 µM |  | 82.1 µM |  | > 100 µM |  | 40.3 µM
CN[C@@H](C)C(=O)N[C@H](C(=O)N1CCC[C@H]1C(=O)N[C@H]1c2ccccc2C[C@H]1OCC#CC#CCO[C@@H]1Cc2ccccc2[C@@H]1NC(=O)[C@@H]1CCCN1C(=O)[C@@H](NC(=O)[C@H](C)NC)C1CCCCC1)C1CCCCC1 | 6.86 | 20.6 µM | 2.37 µM | 13.7 µM | 18.1 | 34.6 | 2.63 µM | 11.9 µM | 0.796 | 6.98 µM | < 0.01 µM |  | 0.514 µM | 20.8 µM | 0.479 | 2.48 µM | 14.4 | 28.5 µM | 9.29 µM | 25.3 µM
Cc1ccccc1NC(=O)N/C(N)=N/c1nc(-c2cccc([N+](=O)[O-])c2)cs1 | 1.94 | > 100 µM | 1.88 µM | 5.15 µM | 4.34 | > 100 | 1.72 µM | 4.41 µM | 1.94 | 6.49 µM | 0.943 µM | 4.73 µM | 1.53 µM | 3.62 µM | 2.15 | 6.6 µM | 2.52 | 8.46 µM | 2.21 µM | 4.55 µM
CCNC(=O)CCN(C(=O)O)S(=O)(=O)c1ccc(NC(=O)c2ccccc2)cc1 |  | > 100 µM |  | > 100 µM |  | > 100 |  | > 100 µM |  | > 100 µM |  | > 100 µM |  | > 100 µM |  | > 100 µM |  | > 100 µM |  | 28.3 µM
O=C(/C=C/c1ccc(F)cc1)c1ccc(Cl)cc1Cl | 89.9 | > 100 µM | 50.8 µM | > 100 µM | 32.4 | 96.5 | 25.8 µM | 73 µM | 37.2 | > 100 µM | > 100 µM | > 100 µM | 77.3 µM | > 100 µM | 30 | 80.8 µM | > 100 | > 100 µM | 45.2 µM | > 100 µM
CCOC(=O)C(Cc1c[nH]c2ccc(N)cc12)(NC(C)=O)C(=O)OCC | > 1000 | > 1000 µM | > 1000 µM | > 1000 µM | > 1000 | > 1000 | > 1000 µM | > 1000 µM | > 1000 | > 1000 µM | > 1000 µM | > 1000 µM | > 1000 µM | > 1000 µM | > 1000 | > 1000 µM | > 1000 | > 1000 µM | > 1000 µM | > 1000 µM
Cn1ccnc1CC(C)(O)c1ccccc1 (centres undefined) |  | > 100 µM |  | > 100 µM |  | > 100 |  | > 100 µM |  | > 100 µM |  | > 100 µM |  | > 100 µM |  | > 100 µM |  | > 100 µM |  | > 100 µM
CCCCOC(=O)NC(=O)c1cn(CCCOC(=O)CCCCCCCCC(=O)OCCCn2cc(C(=O)NC(=O)OCCCC)c(=O)[nH]c2=O)c(=O)[nH]c1=O |  | > 100 µM |  | > 100 µM |  | > 100 |  | > 100 µM |  | > 100 µM |  | > 100 µM |  | > 100 µM |  | > 100 µM |  | > 100 µM |  | > 100 µM
CCOC(=O)C(N)C[S][Sn]([CH3])([CH3])[Cl] (centres undefined) | > 100 | > 100 µM | > 100 µM | > 100 µM | > 100 | > 100 | > 100 µM | > 100 µM | > 100 | > 100 µM | > 100 µM | > 100 µM | > 100 µM | > 100 µM | > 100 | > 100 µM | > 100 | > 100 µM | > 100 µM | > 100 µM
CCOC(=O)Nc1nc2ccc(Cn3cccc3)cc2[nH]1 |  | > 100 µM |  | > 38.6 µM |  | > 100 |  | 6.3 µM |  | > 100 µM |  | > 100 µM |  | 20 µM |  | > 100 µM |  | > 100 µM |  | > 100 µM
COc1ccc([N+](=O)[O-])c2c(NCCCN(C)C)c3ccccc3nc12 |  | 0.557 µM |  | 0.243 µM |  | 0.984 |  | 0.442 µM |  | 0.402 µM |  | 0.336 µM |  | 0.693 µM |  | 0.4 µM |  | 0.389 µM |  | 0.504 µM
COC(=O)C1C(C(=O)OC)C2(OC)c3ccccc3-c3ccccc3C12 (centres undefined) |  | > 100 µM |  | 78.7 µM |  | > 100 |  | > 100 µM |  | > 100 µM |  | > 100 µM |  | > 100 µM |  | > 100 µM |  | > 100 µM |  | > 100 µM
COC(=O)CCc1cc(OC)c2c(c1)C(C(=O)OC)C(c1ccc(OC)c(OC)c1)O2 (centres undefined) |  | > 100 µM | > 100 µM and 12 µM | > 100 µM |  | > 100 | > 100 µM and 13.9 µM | > 100 µM |  | > 100 µM | > 100 µM and 20 µM | > 100 µM | > 100 µM and 17.1 µM | > 100 µM |  | > 100 µM |  | > 100 µM | > 100 µM and 40.9 µM | > 100 µM
O=C(O[C@H]1CN[C@H](C#Cc2cc3ncnc(Nc4ccc5c(ccn5Cc5cc(F)ccc5F)c4)c3s2)C1)N1CCOCC1 | 0.119 | 2.04 µM | 2.95 µM | 6.13 µM | 1.07 | 11.1 | 2.86 µM | 6.55 µM | 4.25 | 14.6 µM | 4.06 µM | 9.41 µM | 6.02 µM | 17.7 µM | 0.357 | 3.9 µM | 0.575 | > 25 µM | 4.55 µM | 12.6 µM
